Patent US20070128669A1, “Serum-free expansion of cells in culture” (Institute for Chemical Genomics, priority 2005, published 2007)

Columns and labels:
Murine ESCs (D3 ES) [1] = assay: Alkaline phosphatase activity of ESCs (compound screen); format: cell-based, mouse; conditions: media containing 15% FCS, without exogenous LIF
Method: (§1) Cell culture. ESCs, D3ES (ATCC CRL-1934) were maintained on Mitomycin C treated MEFs in mouse ESC medium containing DMEM (Invitrogen) supplemented with 15% FBS (Invitrogen), 0.1 mM MEM nonessential amino acids (Invitrogen), 0.1 mM 2-mercaptoethanol (Sigma), 2 mM L-glutamine (Invitrogen) and 1,000 U/ml LIF (CHEMICON). To remove MEFs, cells were collected by trypsinization and plated on gelatin-coated culture dishes for 20 min. Non-adherent cells consisting mainly of ESCs were replated on gelatin-coated culture dishes again. Non-adherent cells were used for further experiments. P19 cells were cultured according to conditions recommended by the ATCC. Cells were incubated at 37° C. in a 5% CO2 incubator. Purified Wnt3a was purchased (R&D Systems).
Compound Screens. For the small molecule screen, alkaline phosphatase activity of ESCs was determined. ESCs were plated into 96-well tissue culture plates (Falcon) at a density of 316-1,000 cells per well in ESC medium without LIF. Compounds were added at a final concentration of 4 μg/ml. Cells were treated with compounds for 7 days and test cell populations were washed with PBS and 100 μl of p-nitrophenyl phosphate solution (MOSS Inc.) was added. The absorbance at 405 nm was measured by spectrophotometer (Spectramax, Molecular Devices).

p300/β-catenin complex = assay: Co-immunoprecipitation of β-catenin with p300 in P19 cells; format: cell-based; conditions: Wnt3a, 10 μM, 24 hours
Method: (§2) Co-immunoprecipitation of β-catenin with CBP or p300 in P19 cells. Co-immunoprecipitation was performed as described in (27). Briefly, P19 cells were treated with 10 μM ICG-001 or 10 μM IQ-1 (control DMSO was 0.025%) for 24 hours, after which they were washed and lysed […]. Nuclear fraction was isolated and precleared with antibodies to CBP(A-22) or p300(N-15). β-catenin was detected using a mouse monoclonal antibody (Becton Dickinson) at a dilution of 1:5000.

[2] = test system: TCF/β-catenin reporter in NIH-3T3 cells; assay: TOPFLASH/FOPFLASH TCF/β-catenin reporter assay in NIH-3T3 cells; format: cell-based
Method: NIH-3T3 cells (wt), NIH-3T3 CBP(+/−) cells and NIH-3T3 p300(+/−) cells were transfected as described in (26). Briefly, cells were transfected with TOPFLASH or FOPFLASH, using Fugene6 (Roche Molecular Biochemicals). Transfection efficiencies were normalized with pRL-null luciferase plasmid. Luciferase assays were performed with the DUAL-Luciferase Reporter Assay System (Promega).
In certain experiments, NIH-3T3 cells (wt), NIH-3T3 CBP(+/−) cells and NIH-3T3 p300(+/−) cells were transfected as described in (26). Briefly, cells were transfected with TOPFLASH or FOPFLASH, using Fugene6 (Roche Molecular Biochemicals). Transfection efficiencies were normalized with pRL-null luciferase plasmid. Luciferase assays were performed with the DUAL-Luciferase Reporter Assay System (Promega).
The Wnt/β-catenin reporter constructs TOPFLASH and FOPFLASH in wild-type NIH-3T3 cells (wt), NIH-3T3 CBP(+/−) cells and NIH-3T3 p300(+/−) cells were used to determine whether IQ-1, by targeting the PR72/130 subunit with PP2A, was selectively increasing β-catenin's usage of CBP as a coactivator at the expense of p300, thereby maintaining the ESCs in the undifferentiated state (FIG. 4A). A point mutant constitutively translocating β-catenin (pt-mut β-cat) was used to stimulate reporter activity (28).

CBP/β-catenin complex = molecular target: T1, CBP/β-catenin complex (Mus musculus, UniProt P45481); assay: Co-immunoprecipitation of β-catenin with CBP in P19 cells; format: cell-based; conditions: Wnt3a, 10 μM, 24 hours
T1 construct: endogenous in cells; host or cells: P19 cells (nuclear fraction)
T1 sequence (P45481 2-2441 limits assumed, one chain of several): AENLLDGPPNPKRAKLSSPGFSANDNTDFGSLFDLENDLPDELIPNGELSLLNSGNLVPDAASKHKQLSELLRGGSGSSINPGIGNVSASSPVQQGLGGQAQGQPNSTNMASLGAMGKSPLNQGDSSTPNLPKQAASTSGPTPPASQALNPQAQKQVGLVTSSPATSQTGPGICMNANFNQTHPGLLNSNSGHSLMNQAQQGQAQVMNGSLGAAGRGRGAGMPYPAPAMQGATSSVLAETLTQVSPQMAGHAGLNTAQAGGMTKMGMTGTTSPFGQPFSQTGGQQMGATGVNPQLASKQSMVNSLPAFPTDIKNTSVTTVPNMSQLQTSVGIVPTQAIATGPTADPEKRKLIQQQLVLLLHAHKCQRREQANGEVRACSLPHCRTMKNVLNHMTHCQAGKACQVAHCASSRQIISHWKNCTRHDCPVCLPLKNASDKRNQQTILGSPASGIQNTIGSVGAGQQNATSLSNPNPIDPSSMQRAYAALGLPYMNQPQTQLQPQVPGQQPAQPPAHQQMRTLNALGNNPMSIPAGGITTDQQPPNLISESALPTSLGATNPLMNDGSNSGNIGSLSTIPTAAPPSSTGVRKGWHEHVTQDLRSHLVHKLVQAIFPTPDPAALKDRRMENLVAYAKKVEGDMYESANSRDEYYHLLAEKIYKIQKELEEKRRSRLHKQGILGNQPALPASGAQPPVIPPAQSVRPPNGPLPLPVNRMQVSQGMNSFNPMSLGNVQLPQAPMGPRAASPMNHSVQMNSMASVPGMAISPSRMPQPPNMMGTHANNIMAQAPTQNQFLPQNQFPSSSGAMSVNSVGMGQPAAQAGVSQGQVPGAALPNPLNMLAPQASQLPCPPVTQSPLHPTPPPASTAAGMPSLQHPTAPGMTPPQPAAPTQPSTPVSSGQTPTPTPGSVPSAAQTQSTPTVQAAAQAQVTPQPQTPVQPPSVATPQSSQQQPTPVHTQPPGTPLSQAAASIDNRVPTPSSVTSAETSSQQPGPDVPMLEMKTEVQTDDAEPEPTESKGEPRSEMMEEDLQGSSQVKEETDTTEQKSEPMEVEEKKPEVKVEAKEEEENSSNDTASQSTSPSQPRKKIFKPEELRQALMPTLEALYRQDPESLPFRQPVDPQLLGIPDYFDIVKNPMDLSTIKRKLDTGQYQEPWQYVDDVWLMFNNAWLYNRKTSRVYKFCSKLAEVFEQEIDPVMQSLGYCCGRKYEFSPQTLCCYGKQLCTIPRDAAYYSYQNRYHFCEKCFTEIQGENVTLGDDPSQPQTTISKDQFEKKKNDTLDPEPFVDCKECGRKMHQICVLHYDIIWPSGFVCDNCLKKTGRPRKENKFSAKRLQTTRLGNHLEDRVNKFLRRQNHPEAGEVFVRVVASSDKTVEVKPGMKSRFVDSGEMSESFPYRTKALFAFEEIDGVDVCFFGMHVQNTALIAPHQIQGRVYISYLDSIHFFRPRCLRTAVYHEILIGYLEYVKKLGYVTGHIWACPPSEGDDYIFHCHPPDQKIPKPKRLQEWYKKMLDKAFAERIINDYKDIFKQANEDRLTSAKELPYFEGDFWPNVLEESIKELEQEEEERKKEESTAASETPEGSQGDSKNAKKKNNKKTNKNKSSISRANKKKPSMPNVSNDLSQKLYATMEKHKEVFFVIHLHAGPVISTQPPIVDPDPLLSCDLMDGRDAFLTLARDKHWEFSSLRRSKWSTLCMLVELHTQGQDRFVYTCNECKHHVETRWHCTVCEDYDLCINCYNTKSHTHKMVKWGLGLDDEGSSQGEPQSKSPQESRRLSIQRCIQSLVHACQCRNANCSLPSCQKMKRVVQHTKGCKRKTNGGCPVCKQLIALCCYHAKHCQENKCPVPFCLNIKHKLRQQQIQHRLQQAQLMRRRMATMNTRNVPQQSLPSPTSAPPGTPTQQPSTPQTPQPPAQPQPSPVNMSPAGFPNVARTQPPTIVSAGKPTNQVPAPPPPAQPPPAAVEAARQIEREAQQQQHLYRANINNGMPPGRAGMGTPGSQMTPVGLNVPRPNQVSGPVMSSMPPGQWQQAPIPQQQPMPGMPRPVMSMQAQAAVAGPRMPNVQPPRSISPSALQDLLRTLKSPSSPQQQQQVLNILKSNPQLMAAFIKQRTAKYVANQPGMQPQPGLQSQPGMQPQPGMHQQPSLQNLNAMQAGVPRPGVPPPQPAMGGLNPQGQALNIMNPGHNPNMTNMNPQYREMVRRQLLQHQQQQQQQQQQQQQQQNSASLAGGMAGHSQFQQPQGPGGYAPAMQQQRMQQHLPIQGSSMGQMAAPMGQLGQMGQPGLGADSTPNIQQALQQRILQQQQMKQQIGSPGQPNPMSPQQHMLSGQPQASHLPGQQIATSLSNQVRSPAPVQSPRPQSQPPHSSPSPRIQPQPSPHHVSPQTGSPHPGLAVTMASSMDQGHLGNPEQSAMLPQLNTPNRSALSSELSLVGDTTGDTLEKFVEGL
Method: as §2

Murine ESCs (D3 ES) [3] = assay: SSEA-1 expression of ESCs by flow cytometry; format: cell-based, mouse; conditions: 7 days after addition of IQ-1
Method: Flow Cytometry. Analysis of SSEA-1 expression of ESCs was performed by flow cytometry according to Zandstra et al. (35). The test cell population was washed in ice cold Hanks balanced salt solution (Invitrogen) containing 2% FCS(HF) and resuspended for 10 min in HF containing anti-mouse CD16/CD32 monoclonal antibody at 1 μg/100 μl (Pharmingen) to block nonspecific binding. Blocked cells were then incubated at 1×10^7 cells/ml for 40 min on ice with anti-SSEA-1 (Kyowa Medex) followed by FITC-Goat anti Mouse IgM antibody (ZYMED). Cells to be analyzed for their SSEA-1 expression were then washed twice in HF with 2 μg/ml propidium iodide (Dojindo) added into the final wash. The cells were then resuspended in HF for analysis on a FACS Calibur (Becton Dickinson).

ESCs = assay: Long term feeder-free culture of ESCs in serum-free (15% KSR) media; format: cell-based, mouse
Method: FIG. 7. […] ESCs were cultured in 15% KSR, 4 μg/ml of IQ-1 and 100 ng/ml Wnt3a. ESCs were passaged 2-3 times per week at 1×10^5-1×10^6 cells per 6 cm dish and cells were counted.
FIG. 8. […] AP activity of ESCs cultured for 7 days in IQ-1 containing media supplemented with 15% FCS or 15% KSR. […] (Error bars represent ±S.D.)
FIG. 9. […] Over the 42-day culture period, ESCs cultured in the media in the presence of IQ-1 and Wnt3a maintain expression of the pluripotency markers, (a) Nanog, (b) Oct3/4 and (c) Rex-1. The expression level on day 0 was set as 1.
as §1

P19 cells = assay: Real-time RT-PCR of stem cell maintenance genes in P19 cells; format: cell-based; conditions: Wnt3a and IQ-1 vs Wnt3a+DMSO, from the control gene β-actin
Method: Real-time RT-PCR. Total RNA was isolated and reverse-transcribed using SuperScript III (Invitrogen). Real-time RT-PCR (Sybr Green; BioRad) was performed using with the gene-specific primers: […]
In certain experiments, 2 μg of extracted total RNA was reverse-transcribed using SuperScript III RT-PCR system (Invitrogen) according to the manufacturer's protocol. 1 μl of cDNA was amplified by PCR with one or more of the gene-specific primers of SEQ ID NOs:5-18 using optimized PCR cycles to obtain amplified reactions in the linear range.
In Table 1, above, the effects of IQ-1 treatment on genes associates with stem cell maintenance are shown, as measured by RT-PCR. The values are represented as ΔΔCT from the control gene β-actin.

[4] = stimulated with pt-mut β-catenin

SMILES: CC(=O)c1ccc(NN=C(C(N)=O)C2=NC(C)(C)Cc3ccccc32)cc1 [IQ-1]
- Alkaline Phosphatase (AP) activity (Murine ESCs (D3 ES) [1]): dose dependently increased AP activity
- p300/β-catenin interaction (p300/β-catenin complex): at the expense of the p300/β-catenin complex
- Fopflash reporter activity ([2]; NIH-3T3 cells): no effect
- TOPFLASH activity, NIH-3T3 CBP (+/−) cells [2, 4]: did not affect TOPFLASH or FOPFLASH activity
- TOPFLASH activity, wt NIH-3T3 cells [2, 4]: did not affect TOPFLASH or FOPFLASH activity
- increase in TOPFLASH activity, NIH-3T3 p300 (+/−) cells [2, 4]: 2-3 fold
- relative amount of β-catenin associated with CBP (CBP/β-catenin complex): dramatic increase
- SSEA-1 expression (Murine ESCs (D3 ES) [3]): enhanced expression
- proliferation and expression of Oct4, Nanog and Rex1, combination of Wnt3a and IQ-1 (ESCs; 15% KSR, Wnt3a 100 ng/ml plus IQ-1 4 μg/ml): allowed for proliferation and maintenance of pluripotency
- time ESC proliferation and pluripotency maintained in culture (ESCs; IQ-1 in conjunction with purified Wnt3a, absence of serum): at least 48 days
- maintenance of undifferentiated status of ESCs, agent alone (ESCs; KSR media, single agent): Neither Wnt3a nor IQ-1 alone was sufficient
- ΔΔCT MDR-1 (P19 cells): 1.69
- ΔΔCT Oct4 (P19 cells): 0.39
- ΔΔCT Sox-2 (P19 cells): 4.31
- ΔΔCT c-myc (P19 cells): −2.01
